# Measured values published in US10226464B2, “Small molecule NF-κB inhibitors” (ImmuneTarget, Inc., priority 2015, dated 2019).
# Columns and labels:
# c-Rel protein = c-Rel protein (Homo sapiens (Human), UniProt Q04864); assay: Electrophoretic Mobility Shift Assay (EMSA), Rel/NF-κB DNA binding inhibition; details: 10 nM c-Rel protein, phosphor-labeled CD28RE oligonucleotide
# Protocol: Electrophoretic Mobility Shift Assay (EMSA)
# DNA binding reaction (20 μL) was carried out in 1×DNA Binding Buffer (10 mM Tris, 40 mM NaCl, 1 mM EDTA, 4% glycerol) with 10 nM c-Rel protein and 0.5 ng phosphor-labeled CD28RE oligonucleotide for 10 minutes at room temperature in 96-well plates. Test compounds, in serial dilutions, were added into each well, and further incubated for 15 minutes before loading onto native 5% polyacrylamide gel. Electrophoresis proceeded for 2.5 hours at 160V. Radioactive signals were quantified using Phospho-Imager. IC50 of compounds of example 1 to 75 were determined by quantifying the intensity of Rel/NF-κB inhibition in EMSA using phospho-imager. An example of EMSA data of the present invention is shown for compound 6 in FIG. 2.
# NF-κB = NF-κB GFP Assay (NFκB/Jurkat/GFP transcriptional reporter cell line); assay type: cell-based; details: Homo sapiens; NF-κB/Jurkat/GFP reporter cells, TNF-α 5 ng/ml, 24 hours; read-out: NF-KB GFP IC50
# Protocol: NFκB/Jurkat/GFP transcriptional reporter cell line was obtained from SBI System Biosciences. NF-κB/Jurkat/GFP™ Reporter cells (5×10^5 cells) were plated at a concentration of 1 million cells/ml into each well of a 24-well plate. TNF-α (5 ng/ml) was added. Compounds were added via serial dilutions to corresponding wells. After 24 hours, 100 μl of the cells were transferred to a well of a Costar® UV plate (96 well, No lid, w/ UV Transparent Flat Bottom, Corning, N.Y., Cat#3635) and the intensity of GFP fluorescence was measured (Excitation 485+/−20, Emission 528+/−20) in a Synergy™ HT Multi-Detection Microplate Reader (BioTech, Winooski, Vt.). The intensities of GFP measured were plotted against the […].
# Chain of c-Rel protein (Q04864 whole entry): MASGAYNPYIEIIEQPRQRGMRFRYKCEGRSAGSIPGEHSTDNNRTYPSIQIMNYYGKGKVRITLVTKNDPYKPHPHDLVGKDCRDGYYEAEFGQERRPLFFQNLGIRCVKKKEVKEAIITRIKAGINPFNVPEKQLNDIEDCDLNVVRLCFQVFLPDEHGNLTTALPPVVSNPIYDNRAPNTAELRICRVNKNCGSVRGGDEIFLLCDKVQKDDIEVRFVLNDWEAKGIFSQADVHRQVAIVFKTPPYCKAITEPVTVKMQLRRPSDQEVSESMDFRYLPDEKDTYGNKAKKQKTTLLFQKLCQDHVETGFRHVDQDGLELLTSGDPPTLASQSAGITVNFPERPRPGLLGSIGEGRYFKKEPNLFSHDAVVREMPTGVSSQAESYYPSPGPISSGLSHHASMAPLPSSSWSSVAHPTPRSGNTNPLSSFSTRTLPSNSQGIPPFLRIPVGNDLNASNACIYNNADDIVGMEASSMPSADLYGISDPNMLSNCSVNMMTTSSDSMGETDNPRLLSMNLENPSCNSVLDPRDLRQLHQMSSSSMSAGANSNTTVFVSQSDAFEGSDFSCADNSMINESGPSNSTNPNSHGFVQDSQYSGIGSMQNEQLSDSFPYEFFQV
SMILES,IC50 (c-Rel protein),IC50 (NF-κB)
"CCCCn1c(=O)nc2oc3cc(OCC)c(Cl)cc3cc-2c1=O [Compound 26, 3-butyl-7-chloro-8-ethoxy-2H-chromeno[2,3-d]pyrimidine-2,4(3H)-dione]",< 1 µM,< 30 µM
"Cc1cc2oc3nc(=O)[nH]c(=O)c-3cc2cc1F [Compound 27, 7-fluoro-8-methyl-2H-chromeno[2,3-d]pyrimidine-2,4(3H)-dione]",< 0.5 µM,< 5 µM
CCCCCCOc1cc2oc3nc(=O)[nH]c(=O)c-3cc2cc1Cl [Compound 37],< 0.5 µM,< 20 µM
CCCCCOc1ccc2cc3c(=O)[nH]c(=O)nc-3oc2c1Cl [Compound 39],< 0.5 µM,< 3 µM
CC(C)CCOc1ccc2cc3c(=O)[nH]c(=O)nc-3oc2c1Cl [Compound 40],< 0.5 µM,5 µM
CC(C)(C)CCOc1ccc2cc3c(=O)[nH]c(=O)nc-3oc2c1Cl [Compound 41],< 0.5 µM,< 10 µM
CCCCCCCOc1ccc2cc3c(=O)[nH]c(=O)nc-3oc2c1Cl [Compound 42],< 0.5 µM,< 10 µM
CCCCOc1ccc2cc3c(=O)[nH]c(=O)nc-3oc2c1Cl [Compound 43],< 0.5 µM,< 3 µM
CCCCCCOc1ccc2cc3c(=O)[nH]c(=O)nc-3oc2c1Cl [Compound 44],< 0.5 µM,< 3 µM
CCCCOc1ccc2cc3c(=O)[nH]c(=O)nc-3oc2c1F [Compound 45],< 0.5 µM,< 5 µM
CCCCCCOc1ccc2cc3c(=O)[nH]c(=O)nc-3oc2c1F [Compound 46],< 0.5 µM,< 5 µM
CC(C)CCCOc1ccc2cc3c(=O)[nH]c(=O)nc-3oc2c1F [Compound 47],< 1 µM,< 5 µM
CC(C)COc1ccc2cc3c(=O)[nH]c(=O)nc-3oc2c1F [Compound 48],< 0.5 µM,< 5 µM
"CCOc1ccc2cc3c(=O)[nH]c(=O)nc-3sc2c1 [Compound 49, 8-ethoxy-2H-thiochromeno[2,3-d]pyrimidine-2,4(3H)-dione]",< 1 µM,< 5 µM
CCCCOc1ccc2cc3c(=O)[nH]c(=O)nc-3oc2c1 [Compound 50],< 1 µM,< 5 µM
CC(=O)OCCCCOc1ccc2cc3c(=O)[nH]c(=O)nc-3oc2c1 [Compound 51],< 1 µM,< 5 µM

# Other lines, results leading:
IC50 (c-Rel protein),IC50 (NF-κB),SMILES
< 0.5 µM,< 5 µM,"CCOc1cc2oc3nc(=O)[nH]c(=O)c-3cc2cc1F [Compound 28, 8-ethoxy-7-fluoro-2H-chromeno[2,3-d]pyrimidine-2,4(3H)-dione]"
< 0.5 µM,< 5 µM,CCCCOc1cc2oc3nc(=O)[nH]c(=O)c-3cc2cc1F [Compound 29]
< 0.5 µM,< 10 µM,CCCCCOc1cc2oc3nc(=O)[nH]c(=O)c-3cc2cc1F [Compound 30]
< 0.5 µM,< 5 µM,CCCCCCOc1cc2oc3nc(=O)[nH]c(=O)c-3cc2cc1F [Compound 31]
< 0.5 µM,< 5 µM,CCCCCCCOc1cc2oc3nc(=O)[nH]c(=O)c-3cc2cc1F [Compound 32]
< 0.5 µM,< 3 µM,CC(C)CCOc1cc2oc3nc(=O)[nH]c(=O)c-3cc2cc1F [Compound 33]
< 0.5 µM,10 µM,CC(C)(C)CCOc1cc2oc3nc(=O)[nH]c(=O)c-3cc2cc1F [Compound 34]
< 1 µM,< 10 µM,CC(C)CCCOc1cc2oc3nc(=O)[nH]c(=O)c-3cc2cc1F [Compound 35]
< 0.5 µM,< 10 µM,CC(C)(C)COc1cc2oc3nc(=O)[nH]c(=O)c-3cc2cc1F [Compound 36]
< 0.5 µM,< 20 µM,CC(C)COc1cc2oc3nc(=O)[nH]c(=O)c-3cc2cc1Cl [Compound 38]
